Assays:
[1] = molecular target: Vascular endothelial growth factor receptor 1 (Homo sapiens, UniProt P17948); assay type: cell-based; settings: huvec; also: in other assays of this panel Not Active means under 50% inhibition at 10 µM
[2] = molecular target: Sodium-dependent noradrenaline transporter (Homo sapiens, UniProt P23975); assay: DRUGMATRIX: Norepinephrine Transporter radioligand binding (ligand: [125I] RTI-55); assay type: cell membranes, MDCK, Membrane; settings: Not Active = under 50% inhibition at 10 µM
Chain of Sodium-dependent noradrenaline transporter (P23975 whole entry): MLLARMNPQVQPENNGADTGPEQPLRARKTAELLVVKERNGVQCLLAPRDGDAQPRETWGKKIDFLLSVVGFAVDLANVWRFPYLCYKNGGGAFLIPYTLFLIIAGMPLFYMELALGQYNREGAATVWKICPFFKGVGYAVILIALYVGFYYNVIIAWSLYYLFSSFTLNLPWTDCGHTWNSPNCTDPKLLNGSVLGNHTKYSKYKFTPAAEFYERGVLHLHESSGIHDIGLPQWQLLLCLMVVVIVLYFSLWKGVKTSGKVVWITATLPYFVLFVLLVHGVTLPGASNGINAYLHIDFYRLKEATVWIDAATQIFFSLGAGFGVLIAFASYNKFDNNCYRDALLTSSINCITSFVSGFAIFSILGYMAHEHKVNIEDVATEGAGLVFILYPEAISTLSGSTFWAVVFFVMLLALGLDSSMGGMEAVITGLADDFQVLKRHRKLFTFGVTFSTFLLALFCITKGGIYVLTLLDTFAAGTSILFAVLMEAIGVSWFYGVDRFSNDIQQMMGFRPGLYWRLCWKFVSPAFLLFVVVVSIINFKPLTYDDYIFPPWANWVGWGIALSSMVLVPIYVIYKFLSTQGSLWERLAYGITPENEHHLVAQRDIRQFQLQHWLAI

[3] = molecular target: Adenosine receptor A2a (Homo sapiens, UniProt P29274); assay: DRUGMATRIX: Adenosine A2A radioligand binding (ligand: […]); assay type: cell membranes, Membrane; settings: hek293; Not Active = under 50% inhibition at 10 µM
Chain of Adenosine receptor A2a (P29274 whole entry): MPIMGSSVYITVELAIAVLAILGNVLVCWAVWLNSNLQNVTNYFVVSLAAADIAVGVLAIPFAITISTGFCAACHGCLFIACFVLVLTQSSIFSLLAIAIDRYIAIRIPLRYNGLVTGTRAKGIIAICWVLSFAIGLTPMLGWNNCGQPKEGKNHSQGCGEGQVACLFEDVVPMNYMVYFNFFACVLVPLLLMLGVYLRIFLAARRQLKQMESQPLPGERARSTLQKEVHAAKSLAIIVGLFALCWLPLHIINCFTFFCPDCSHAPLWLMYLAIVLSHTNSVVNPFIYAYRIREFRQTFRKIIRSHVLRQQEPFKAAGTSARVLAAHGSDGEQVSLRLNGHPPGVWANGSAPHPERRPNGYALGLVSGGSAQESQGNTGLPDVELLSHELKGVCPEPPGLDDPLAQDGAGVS

[4] = molecular target: T1, Muscarinic acetylcholine receptor M2 (Homo sapiens, UniProt P08172); assay type: cell membranes, CHO-K1, Membrane; also: in other assays of this panel Not Active means under 50% inhibition at 10 µM
T1 sequence (P08172 whole entry): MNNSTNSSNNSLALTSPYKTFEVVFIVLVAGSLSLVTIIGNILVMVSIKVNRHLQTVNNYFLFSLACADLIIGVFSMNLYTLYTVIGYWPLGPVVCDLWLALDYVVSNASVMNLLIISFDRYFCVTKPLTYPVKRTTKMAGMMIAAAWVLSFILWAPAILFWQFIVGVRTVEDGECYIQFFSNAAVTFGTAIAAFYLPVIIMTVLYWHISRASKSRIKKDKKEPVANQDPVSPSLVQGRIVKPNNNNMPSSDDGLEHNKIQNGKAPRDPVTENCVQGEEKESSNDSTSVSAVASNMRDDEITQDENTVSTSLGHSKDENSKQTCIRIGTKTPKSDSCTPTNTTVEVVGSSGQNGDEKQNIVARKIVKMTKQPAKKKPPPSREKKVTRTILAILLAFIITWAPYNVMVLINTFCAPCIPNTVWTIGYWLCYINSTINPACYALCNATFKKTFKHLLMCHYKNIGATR

[5] = DRUGMATRIX: beta-Lactamase enzyme inhibition (substrate: Nitrocefin); set-up: species or system Bacillus cereus; settings: Not Active = under 50% inhibition at 10 µM
[6] = DRUGMATRIX: Sigma2 radioligand binding (ligand: [3H] Ifenprodil); assay type: cell membranes, Rattus norvegicus, Wistar, Brain, Membrane; settings: Not Active = under 50% inhibition at 10 µM

Chain of Vascular endothelial growth factor receptor 1 (P17948 whole entry): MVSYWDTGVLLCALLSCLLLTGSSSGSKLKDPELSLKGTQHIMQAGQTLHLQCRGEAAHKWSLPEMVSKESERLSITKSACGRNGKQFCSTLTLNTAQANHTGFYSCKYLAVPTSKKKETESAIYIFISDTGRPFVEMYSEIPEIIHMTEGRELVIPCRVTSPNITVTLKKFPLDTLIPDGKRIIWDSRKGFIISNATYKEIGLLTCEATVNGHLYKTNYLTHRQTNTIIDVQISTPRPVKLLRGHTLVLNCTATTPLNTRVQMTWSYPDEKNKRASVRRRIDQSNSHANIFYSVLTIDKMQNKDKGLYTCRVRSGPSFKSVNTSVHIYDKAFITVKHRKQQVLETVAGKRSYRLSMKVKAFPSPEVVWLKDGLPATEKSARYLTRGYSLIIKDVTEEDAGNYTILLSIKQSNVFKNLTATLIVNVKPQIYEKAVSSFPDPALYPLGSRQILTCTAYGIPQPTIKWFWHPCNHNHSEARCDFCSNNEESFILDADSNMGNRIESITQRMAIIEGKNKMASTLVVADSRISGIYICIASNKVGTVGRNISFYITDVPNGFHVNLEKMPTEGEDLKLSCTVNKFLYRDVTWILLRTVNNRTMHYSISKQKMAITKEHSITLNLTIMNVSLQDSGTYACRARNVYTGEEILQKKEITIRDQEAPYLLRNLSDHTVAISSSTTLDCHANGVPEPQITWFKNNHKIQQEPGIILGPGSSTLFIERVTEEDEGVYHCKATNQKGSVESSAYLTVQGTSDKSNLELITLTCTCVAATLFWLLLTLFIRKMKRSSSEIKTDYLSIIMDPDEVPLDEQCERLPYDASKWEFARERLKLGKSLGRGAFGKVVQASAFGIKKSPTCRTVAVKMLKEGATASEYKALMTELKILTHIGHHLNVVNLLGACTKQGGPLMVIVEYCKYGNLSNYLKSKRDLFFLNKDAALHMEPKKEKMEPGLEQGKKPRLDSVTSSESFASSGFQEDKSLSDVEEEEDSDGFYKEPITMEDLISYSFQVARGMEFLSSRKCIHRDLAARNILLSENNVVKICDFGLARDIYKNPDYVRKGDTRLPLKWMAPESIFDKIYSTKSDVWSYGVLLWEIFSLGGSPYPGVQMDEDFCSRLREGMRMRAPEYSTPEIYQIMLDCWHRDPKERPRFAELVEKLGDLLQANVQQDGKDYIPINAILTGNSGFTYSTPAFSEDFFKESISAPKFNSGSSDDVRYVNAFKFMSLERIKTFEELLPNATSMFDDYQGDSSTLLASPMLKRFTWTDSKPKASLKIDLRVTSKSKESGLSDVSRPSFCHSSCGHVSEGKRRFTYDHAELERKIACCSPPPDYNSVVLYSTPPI

Row | Compound | IC50 [1] | IC50 ([2]; mdck) | IC50 [3] | IC50 ([4]; cho-k1) | IC50 [5] | Ki [5] | IC50 [6] | Ki [6] | IC50 ([2]; read-out: IC50) [nM] | Ki ([2]; read-out: Ki) [nM] | IC50 ([4]; read-out: IC50) [nM] | Ki ([4]; read-out: Ki) [nM] | IC50 ([6]; read-out: IC50) [nM] | Ki ([6]; read-out: Ki) [nM] | Ki [1] | Ki ([2]; mdck) | Ki [3] | Ki ([4]; cho-k1) | IC50 ([5]; read-out: IC50) [nM]
1 | CC1(C)O[C@@H]2C[C@H]3[C@@H]4CCC5=CC(=O)CC[C@]5(C)[C@@]4(F)[C@@H](O)C[C@]3(C)[C@]2(C(=O)CCl)O1 [HALCINONIDE] | Not Active | Not Active | Not Active | Not Active | Not Active | Not Active | Not Active | Not Active | – | – | – | – | – | – | – | – | – | – | –
2 | O=c1[nH]c(=O)n([C@H]2C[C@H](O)[C@@H](CO)O2)cc1I [IDOXURIDINE] | Not Active | Not Active | Not Active | Not Active | Not Active | Not Active | Not Active | Not Active | – | – | – | – | – | – | – | – | – | – | –
3 | CC1Cc2ccccc2N1NC(=O)c1ccc(Cl)c(S(N)(=O)=O)c1 (stereo not given) [INDAPAMIDE] | Not Active | Not Active | Not Active | Not Active | Not Active | Not Active | Not Active | Not Active | – | – | – | – | – | – | – | – | – | – | –
4 | Nc1nc(N)nc(-c2cc(Cl)ccc2Cl)n1.O=C(O)/C=C\C(=O)O [IRSOGLADINE MALEATE] | Not Active | Not Active | Not Active | Not Active | Not Active | Not Active | Not Active | Not Active | – | – | – | – | – | – | – | – | – | – | –
5 | CCC(C)n1ncn(-c2ccc(N3CCN(c4ccc(OCC5COC(Cn6cncn6)(c6ccc(Cl)cc6Cl)O5)cc4)CC3)cc2)c1=O (stereo not given) [ITRACONAZOLE] | Not Active | Not Active | Not Active | Not Active | Not Active | Not Active | Not Active | Not Active | – | – | – | – | – | – | – | – | – | – | –
6 | CCCCN1CCCC[C@H]1C(=O)Nc1c(C)cccc1C [LEVOBUPIVACAINE] | Not Active | Not Active | Not Active | Not Active | Not Active | Not Active | Not Active | Not Active | – | – | – | – | – | – | – | – | – | – | –
7 | CCCCc1nc(Cl)c(CO)n1Cc1ccc(-c2ccccc2-c2nnn[nH]2)cc1 [LOSARTAN] | Not Active | Not Active | Not Active | Not Active | Not Active | Not Active | Not Active | Not Active | – | – | – | – | – | – | – | – | – | – | –
8 | Sc1ncnc2nc[nH]c12 [MERCAPTOPURINE ANHYDROUS] | Not Active | Not Active | Not Active | Not Active | Not Active | Not Active | Not Active | Not Active | – | – | – | – | – | – | – | – | – | – | –
9 | C[C@](N)(Cc1ccc(O)c(O)c1)C(=O)O [METHYLDOPA] | Not Active | Not Active | Not Active | Not Active | Not Active | Not Active | Not Active | Not Active | – | – | – | – | – | – | – | – | – | – | –
10 | C[C@]12CCC(=O)C=C1CC[C@@H]1[C@@H]2CC[C@@]2(C)[C@H]1CC[C@]2(C)O [METHYLTESTOSTERONE] | Not Active | Not Active | Not Active | Not Active | Not Active | Not Active | Not Active | Not Active | – | – | – | – | – | – | – | – | – | – | –
11 | Cc1ccccc1N1C(=O)c2cc(S(N)(=O)=O)c(Cl)cc2NC1C (stereo not given) [METOLAZONE] | Not Active | Not Active | Not Active | Not Active | Not Active | Not Active | Not Active | Not Active | – | – | – | – | – | – | – | – | – | – | –
12 | COCCc1ccc(OCC(O)CNC(C)C)cc1 (stereo not given) [METOPROLOL] | Not Active | Not Active | Not Active | Not Active | Not Active | Not Active | Not Active | Not Active | – | – | – | – | – | – | – | – | – | – | –
13 | CCn1cc(C(=O)O)c(=O)c2cc(F)c(N3CCNCC3)cc21 [NORFLOXACIN] | Not Active | Not Active | Not Active | Not Active | Not Active | Not Active | Not Active | Not Active | – | – | – | – | – | – | – | – | – | – | –
14 | NC1=NC(=O)C(c2ccccc2)O1 (stereo not given) [PEMOLINE] | Not Active | Not Active | Not Active | Not Active | Not Active | Not Active | Not Active | Not Active | – | – | – | – | – | – | – | – | – | – | –
15 | Nc1nc2c(ncn2CCC(CO)CO)c(=O)[nH]1 [PENCICLOVIR] | Not Active | Not Active | Not Active | Not Active | Not Active | Not Active | Not Active | Not Active | – | – | – | – | – | – | – | – | – | – | –
16 | C=C(C)C1(O)OC(=O)C=C1OC (stereo not given) [PENICILLIC ACID] | Not Active | Not Active | Not Active | Not Active | Not Active | Not Active | Not Active | Not Active | – | – | – | – | – | – | – | – | – | – | –
17 | CC1(C)S[C@@H]2[C@H](NC(=O)Cc3ccccc3)C(=O)N2[C@H]1C(=O)O [PENICILLIN G] | Not Active | Not Active | Not Active | Not Active | Not Active | Not Active | Not Active | Not Active | – | – | – | – | – | – | – | – | – | – | –
18 | CCCN1C[C@H](CSC)C[C@@H]2c3cccc4[nH]cc(c34)C[C@H]21 [PERGOLIDE] | Not Active | Not Active | Not Active | Not Active | Not Active | Not Active | Not Active | Not Active | – | – | – | – | – | – | – | – | – | – | –
19 | C1CCC(C(CC2CCCCN2)C2CCCCC2)CC1 (stereo not given) [PERHEXILINE] | Not Active | – | Not Active | Not Active | Not Active | Not Active | Not Active | Not Active | 3290 | 3270 | – | – | – | – | – | – | – | – | –
20 | CCOc1ccc(NC(C)=O)cc1 [PHENACETIN] | Not Active | Not Active | Not Active | Not Active | Not Active | Not Active | Not Active | Not Active | – | – | – | – | – | – | – | – | – | – | –
21 | Cc1ccc(N(CC2=NCCN2)c2cccc(O)c2)cc1 [PHENTOLAMINE] | Not Active | Not Active | Not Active | Not Active | Not Active | Not Active | Not Active | Not Active | – | – | – | – | – | – | – | – | – | – | –
22 | CNNCc1ccc(C(=O)NC(C)C)cc1 [PROCARBAZINE] | Not Active | Not Active | Not Active | Not Active | Not Active | Not Active | Not Active | Not Active | – | – | – | – | – | – | – | – | – | – | –
23 | CN(C)CCCN1c2ccccc2Sc2ccccc21 [PROMAZINE] | Not Active | – | Not Active | – | Not Active | Not Active | – | – | 13 | 13 | 1090 | 387 | 2540 | 1560 | – | – | – | – | –
24 | CC(O)CO (stereo not given) [PROPYLENE GLYCOL] | Not Active | Not Active | Not Active | Not Active | Not Active | Not Active | Not Active | Not Active | – | – | – | – | – | – | – | – | – | – | –
25 | CADMIUM ACETATE | Not Active | Not Active | Not Active | Not Active | Not Active | Not Active | Not Active | Not Active | – | – | – | – | – | – | Not Active | Not Active | Not Active | Not Active | –
26 | LEAD (II) ACETATE | Not Active | Not Active | Not Active | Not Active | Not Active | Not Active | Not Active | Not Active | – | – | – | – | – | – | Not Active | Not Active | Not Active | Not Active | –
27 | LIPOPOLYSACCHARIDE E. COLI O55:B5 | Not Active | Not Active | Not Active | Not Active | – | – | Not Active | Not Active | – | – | – | – | – | – | Not Active | Not Active | Not Active | Not Active | 38.7
